# Columns and labels:
# SRPK1 = SRPK1 (Homo sapiens, UniProt Q96SB4); assay: In vitro SRPK1 assay (Kinase-Glo); type: biochemical
# CYP1A2 = biological target: T1, CYP1A2 (Homo sapiens, UniProt P05177); assay: CYP inhibition assay, human liver microsomes, substrate tacrine; type: in vitro ADME; details: human liver microsomes, 10 min incubation, LC-MS/MS; read-out: CYP Inhibition Activity (IC50/nM) CYP1A2
# T1 construct: from tissue; host or cells: human liver microsomes
# T1 sequence (P05177 1-516): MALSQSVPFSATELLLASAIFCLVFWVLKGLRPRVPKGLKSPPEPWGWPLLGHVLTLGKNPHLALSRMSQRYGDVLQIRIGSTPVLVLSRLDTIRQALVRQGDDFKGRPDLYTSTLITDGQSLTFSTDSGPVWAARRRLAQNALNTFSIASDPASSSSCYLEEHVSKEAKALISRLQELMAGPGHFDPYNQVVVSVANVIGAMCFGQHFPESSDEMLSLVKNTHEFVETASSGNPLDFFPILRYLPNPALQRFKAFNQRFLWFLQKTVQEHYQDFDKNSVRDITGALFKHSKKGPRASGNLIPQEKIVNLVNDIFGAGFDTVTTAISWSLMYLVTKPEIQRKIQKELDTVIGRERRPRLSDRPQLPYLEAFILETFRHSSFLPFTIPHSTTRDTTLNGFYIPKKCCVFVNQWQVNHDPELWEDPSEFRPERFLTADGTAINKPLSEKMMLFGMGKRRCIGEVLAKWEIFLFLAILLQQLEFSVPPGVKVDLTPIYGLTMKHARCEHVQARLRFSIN
# Outline: (§1)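 Metabolite formation measured by LC-MS/MS after quench with cold acetonitrile, yielding % inhibition and IC50. Reactions ran 10 min at 37° C after NADPH addition, following 20 min pre-incubation of substrate pool and inhibitor with human liver microsomes.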
# CYP2C9 = biological target: T2, CYP2C9 (Homo sapiens, UniProt P11712); assay: CYP inhibition assay, human liver microsomes, substrate diclofenac; type: in vitro ADME; details: human liver microsomes, 10 min incubation, LC-MS/MS; read-out: CYP Inhibition Activity (IC50/nM) CYP2C9
# T2 construct: from tissue; host or cells: human liver microsomes
# Outline: as §1
# CYP2C19 = biological target: T3, CYP2C19 (Homo sapiens, UniProt P33261); assay: CYP inhibition assay, human liver microsomes, substrate S-mephenytoin; type: in vitro ADME; details: human liver microsomes, 10 min incubation, LC-MS/MS; read-out: CYP Inhibition Activity (IC50/nM) CYP2C19
# T3 construct: from tissue; host or cells: human liver microsomes
# Outline: as §1
# CYP2D6 = biological target: T4, CYP2D6 (Homo sapiens, UniProt P10635); assay: biochemical; type: in vitro ADME
# T4 construct: from tissue; host or cells: human liver microsomes
# Outline: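 Read-out is LC-MS/MS of supernatant, giving % inhibition and IC50 relative to a no-inhibitor ACN/DMSO control. Compound and substrate pool were pre-incubated 20 min at 37° C with human liver microsomes (working stock 0.253 mg/mL) before a 10 min NADPH-driven reaction, quenched with cold ACN.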
# CYP3A4 = biological target: T5, CYP3A4 (Homo sapiens, UniProt P08684); assay: CYP inhibition assay, human liver microsomes, substrate midazolam; type: in vitro ADME; details: human liver microsomes, 10 min incubation, LC-MS/MS; read-out: CYP Inhibition Activity (IC50/nM) CYP3A4
# T5 construct: from tissue; host or cells: human liver microsomes
# Outline: as §1
# Chain of SRPK1 (Q96SB4 whole entry, species assumed): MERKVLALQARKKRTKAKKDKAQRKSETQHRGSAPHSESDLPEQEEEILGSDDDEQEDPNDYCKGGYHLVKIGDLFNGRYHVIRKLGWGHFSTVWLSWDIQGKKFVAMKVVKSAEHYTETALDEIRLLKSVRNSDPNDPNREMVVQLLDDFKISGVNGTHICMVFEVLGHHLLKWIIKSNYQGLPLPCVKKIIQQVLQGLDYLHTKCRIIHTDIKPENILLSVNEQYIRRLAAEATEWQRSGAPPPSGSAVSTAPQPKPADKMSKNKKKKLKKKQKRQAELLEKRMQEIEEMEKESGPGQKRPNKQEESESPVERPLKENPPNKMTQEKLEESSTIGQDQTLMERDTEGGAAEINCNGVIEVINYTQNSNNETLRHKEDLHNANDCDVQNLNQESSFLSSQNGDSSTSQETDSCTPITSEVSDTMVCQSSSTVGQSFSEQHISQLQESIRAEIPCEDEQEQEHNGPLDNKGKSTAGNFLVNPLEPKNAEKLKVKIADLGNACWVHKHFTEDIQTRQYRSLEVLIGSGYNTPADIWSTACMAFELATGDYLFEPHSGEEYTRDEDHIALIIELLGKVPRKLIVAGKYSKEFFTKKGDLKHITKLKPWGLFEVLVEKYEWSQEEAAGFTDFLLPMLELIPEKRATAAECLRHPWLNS
# T4 sequence (P10635 whole entry): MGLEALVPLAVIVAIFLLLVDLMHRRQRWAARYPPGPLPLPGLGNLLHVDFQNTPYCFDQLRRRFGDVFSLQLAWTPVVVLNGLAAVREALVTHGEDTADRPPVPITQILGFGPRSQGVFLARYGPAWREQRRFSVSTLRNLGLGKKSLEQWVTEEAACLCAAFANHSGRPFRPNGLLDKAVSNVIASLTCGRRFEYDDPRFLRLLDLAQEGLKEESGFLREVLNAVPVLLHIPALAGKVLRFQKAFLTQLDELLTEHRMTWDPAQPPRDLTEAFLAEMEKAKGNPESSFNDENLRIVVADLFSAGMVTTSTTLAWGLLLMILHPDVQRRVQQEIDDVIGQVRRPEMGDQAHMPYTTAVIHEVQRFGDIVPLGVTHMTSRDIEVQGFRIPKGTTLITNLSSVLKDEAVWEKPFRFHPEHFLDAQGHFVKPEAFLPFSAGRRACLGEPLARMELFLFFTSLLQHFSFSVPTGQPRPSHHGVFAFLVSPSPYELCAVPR
# T3 sequence (P33261 whole entry): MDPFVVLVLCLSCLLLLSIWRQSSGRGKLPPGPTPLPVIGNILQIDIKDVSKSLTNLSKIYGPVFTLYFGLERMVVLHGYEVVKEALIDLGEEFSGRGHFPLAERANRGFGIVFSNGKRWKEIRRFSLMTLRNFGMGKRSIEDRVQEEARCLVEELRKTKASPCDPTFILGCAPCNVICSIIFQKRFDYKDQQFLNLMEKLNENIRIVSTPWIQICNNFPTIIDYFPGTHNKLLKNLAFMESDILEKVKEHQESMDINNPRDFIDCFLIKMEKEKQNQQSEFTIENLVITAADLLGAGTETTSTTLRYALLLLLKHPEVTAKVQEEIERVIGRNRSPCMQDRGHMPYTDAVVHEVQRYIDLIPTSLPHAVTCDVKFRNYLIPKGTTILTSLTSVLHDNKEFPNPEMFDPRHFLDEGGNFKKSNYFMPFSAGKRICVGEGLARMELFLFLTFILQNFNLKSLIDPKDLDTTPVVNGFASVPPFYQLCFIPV
# T2 sequence (P11712 whole entry): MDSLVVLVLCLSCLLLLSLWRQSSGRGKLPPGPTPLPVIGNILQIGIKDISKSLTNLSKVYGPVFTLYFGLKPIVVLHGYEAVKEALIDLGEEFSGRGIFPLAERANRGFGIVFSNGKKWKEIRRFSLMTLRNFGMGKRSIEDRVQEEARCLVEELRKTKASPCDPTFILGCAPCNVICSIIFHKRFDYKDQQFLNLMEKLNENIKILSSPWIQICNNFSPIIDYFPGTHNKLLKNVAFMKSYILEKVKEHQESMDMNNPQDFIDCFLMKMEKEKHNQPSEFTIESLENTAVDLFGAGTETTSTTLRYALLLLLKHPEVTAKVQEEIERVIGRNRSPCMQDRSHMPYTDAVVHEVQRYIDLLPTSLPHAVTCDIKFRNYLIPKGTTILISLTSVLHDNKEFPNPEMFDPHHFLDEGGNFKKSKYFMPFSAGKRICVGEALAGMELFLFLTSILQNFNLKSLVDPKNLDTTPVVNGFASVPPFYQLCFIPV
# T5 sequence (P08684 whole entry): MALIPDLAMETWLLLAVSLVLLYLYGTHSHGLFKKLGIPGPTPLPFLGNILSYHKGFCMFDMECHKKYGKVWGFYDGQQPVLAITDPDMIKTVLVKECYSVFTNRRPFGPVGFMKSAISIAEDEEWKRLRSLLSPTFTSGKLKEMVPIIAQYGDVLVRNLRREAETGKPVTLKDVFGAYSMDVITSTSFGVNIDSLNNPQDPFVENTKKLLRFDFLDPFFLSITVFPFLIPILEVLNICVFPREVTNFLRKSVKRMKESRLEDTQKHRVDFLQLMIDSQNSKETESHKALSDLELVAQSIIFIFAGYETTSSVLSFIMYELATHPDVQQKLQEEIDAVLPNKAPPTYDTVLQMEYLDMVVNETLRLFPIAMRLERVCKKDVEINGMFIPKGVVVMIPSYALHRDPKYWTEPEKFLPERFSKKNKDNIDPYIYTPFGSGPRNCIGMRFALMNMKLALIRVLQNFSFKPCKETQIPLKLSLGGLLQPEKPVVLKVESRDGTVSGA
SMILES,IC50 (SRPK1),IC50 (CYP1A2),IC50 (CYP2C9),IC50 (CYP2C19),IC50 (CYP2D6),IC50 (CYP3A4)
"CC1(O)CCCN(c2ccc(C(F)(F)F)cc2NC(=O)c2ccc(C3CCOCC3)o2)CC1 (racemic) [Example 40, N-(2-(4-hydroxy-4-methylazepan-1-yl)-5-(trifluoromethyl)phenyl)-5-(tetrahydro-2H-pyran-4-yl)furan-2-carboxamide]",1.6 nM,> 30000 nM,8450 nM,10400 nM,26.9 µM,10900 nM
"CC1(O)CCN(c2ccc(C(F)(F)F)cc2NC(=O)c2ccc(-c3ccncc3)o2)C1 (racemic) [Example 55, N-(2-(3-hydroxy-3-methylpyrrolidin-1-yl)-5-(trifluoromethyl)-phenyl)-5-(pyridin-4-yl)furan-2-carboxamide]",26 nM,13000 nM,> 30000 nM,22900 nM,> 30 µM,> 30000 nM
"Cc1ccc(N2CCC(C)(C)CC2)c(NC(=O)c2ccc(C3CCOCC3)o2)c1 [Example 63, N-(2-(4,4-dimethylpiperidin-1-yl)-5-methylphenyl)-5-(tetrahydro-2H-pyran-4-yl)furan-2-carboxamide]",25 nM,> 30000 nM,14200 nM,> 30000 nM,> 30 µM,> 30000 nM
"O=C(Nc1cc(C(F)(F)F)ccc1N1CCC(O)(c2ccccc2)CC1)c1ccc(C2CCOCC2)o1 [Example 22, N-(2-(4-hydroxy-4-phenylpiperidin-1-yl)-5-(trifluoromethyl)-phenyl)-5-(tetrahydro-2H-pyran-4-yl)furan-2-carboxamide]",35 nM,15300 nM,12700 nM,12300 nM,> 30 µM,18800 nM
"CC1(O)CCCN(c2ccc(Cl)cc2NC(=O)c2ccc(C3CCOCC3)o2)CC1 (racemic) [Example 41, N-(5-chloro-2-(4-hydroxy-4-methylazepan-1-yl)phenyl)-5-(tetrahydro-2H-pyran-4-yl)furan-2-carboxamide]",3 nM,2660 nM,810 nM,370 nM,0.38 µM,2610 nM
"CC1(C(=O)O)CCN(c2ccc(C(F)(F)F)cc2NC(=O)c2ccc(C3CCOCC3)o2)CC1 [Example 27, 4-methyl-1-(2-(5-(tetrahydro-2H-pyran-4-yl)furan-2-carboxamido)-4-(trifluoromethyl)phenyl)-piperidine-4-carboxylic acid]",3.6 nM,> 30000 nM,12600 nM,> 30000 nM,> 30 µM,> 30000 nM
"CN1CCC2(CCN(c3ccc(C(F)(F)F)cc3NC(=O)c3ccc(C4CCOCC4)o3)CC2)C1=O [Example 100, N-(2-(2-methyl-1-oxo-2,8-diazaspiro[4.5]decan-8-yl)-5-(trifluoromethyl)phenyl)-5-(tetrahydro-2H-pyran-4-yl)furan-2-carboxamide]",2.6 nM,> 30000 nM,7300 nM,3200 nM,13.8 µM,2700 nM
"CC1(C)CCN(c2ccc(C3CC3)cc2NC(=O)c2ccc(C3CCOCC3)o2)CC1 [Example 64, N-(5-cyclopropyl-2-(4,4-dimethylpiperidin-1-yl)phenyl)-5-(tetrahydro-2H-pyran-4-yl)furan-2-carboxamide]",5.6 nM,> 30000 nM,15800 nM,> 30000 nM,> 30 µM,> 30000 nM
"CC1(O)CCN(c2ccc(C3CC3)cc2NC(=O)c2ccccn2)CC1 [Example 3, N-(5-cyclopropyl-2-(4-hydroxy-4-methylpiperidin-1-yl)phenyl)-picolinamide]",19 nM,14400 nM,12000 nM,7160 nM,> 30 µM,17100 nM
"CN(C)C(=O)C1(C)CCN(c2ccc(C3CC3)cc2NC(=O)c2ccc(C3CCOCC3)o2)CC1 [Example 86, 1-(4-cyclopropyl-2-(5-(tetrahydro-2H-pyran-4-yl)furan-2-carboxamido)phenyl)-N,N,4-trimethyl-piperidine-4-carboxamide]",9 nM,> 30000 nM,200 nM,4100 nM,19.2 µM,1100 nM
"CC1(CO)CCN(c2ccc(C(F)(F)F)cc2NC(=O)c2ccc(-c3ccncc3)o2)CC1 [Example 24, N-(2-(4-(hydroxymethyl)-4-methylpiperidin-1-yl)-5-(trifluoromethyl)phenyl)-5-(pyridin-4-yl)furan-2-carboxamide]",2 nM,> 30000 nM,> 30000 nM,> 30000 nM,> 30 µM,> 30000 nM
"CNC(=O)C1(C)CCN(c2ccc(C(F)(F)F)cc2NC(=O)c2ccc(-c3ccncc3)o2)CC1 [Example 73, N,4-dimethyl-1-(2-(5-(pyridin-4-yl)furan-2-carboxamido)-4-(trifluoromethyl)phenyl)-piperidine-4-carboxamide]",5.6 nM,> 30000 nM,690 nM,1870 nM,1.61 µM,470 nM
"CC1(CN2CCCCC2)CCN(c2ccc(C(F)(F)F)cc2NC(=O)c2ccc(C3CCOCC3)o2)CC1 [Example 96, N-(2-(4-methyl-4-(piperidin-1-ylmethyl)piperidin-1-yl)-5-(trifluoromethyl)phenyl)-5-(tetrahydro-2H-pyran-4-yl)furan-2-carboxamide]",49 nM,> 30000 nM,17800 nM,> 30000 nM,0.2 µM,7700 nM
"CNCC1(C)CCN(c2ccc(C(F)(F)F)cc2NC(=O)c2ccc(C3CCOCC3)o2)CC1 [Example 82, N-(2-(4-methyl-4-((methylamino)methyl)-piperidin-1-yl)-5-(trifluoromethyl)phenyl)-5-(tetrahydro-2H-pyran-4-yl)furan-2-carboxamide]",35 nM,> 30000 nM,> 30000 nM,29200 nM,2.8 µM,6200 nM
"O=C(Nc1cc(C(F)(F)F)ccc1N1CCC(O)CC1)c1ccc(-c2ccncc2)o1 [Example 32, N-(2-(4-hydroxypiperidin-1-yl)-5-(trifluoromethyl)-phenyl)-5-(pyridin-4-yl)furan-2-carboxamide]",0.8 nM,2900 nM,1500 nM,1100 nM,2.1 µM,4200 nM
"CC1(O)CCN(c2ccc(C3CC3)cc2NC(=O)c2ccc(C3CCOCC3)o2)CC1 [Example 17, N-(5-cyclopropyl-2-(4-hydroxy-4-methylpiperidin-1-yl)phenyl)-5-(tetrahydro-2H-pyran-4-yl)furan-2-carboxamide]",2 nM,> 30000 nM,3770 nM,9570 nM,> 30 µM,15200 nM
"C[C@]1(O)CCN(c2ccc(C(F)(F)F)cc2NC(=O)c2ccc(-c3ccncc3)o2)C1 [Example 53, (S)-N-(2-(3-hydroxy-3-methylpyrrolidin-1-yl)-5-(trifluoromethyl)phenyl)-5-(pyridin-4-yl)furan-2-carboxamide]",169 nM,2810 nM,450 nM,1190 nM,0.01 µM,1330 nM
